# Measured values as given in US20250367166A1, “NEXT GENERATION DIPROVOCIMS THAT ACTIVATE THE INNATE AND ADAPTIVE IMMUNE RESPONSE” (The Scripps Research Institute, priority 2022, published 2025).
# pEC50: −log10 of the molar value. Read-outs that look alike come from different tables or passages of the source.
# Columns and labels:
# [1] = biological target: TLR1/TLR2 (Mus musculus, UniProt Q9EPQ1+Q9QUN7); assay: TNF-α release from thioglycolate-elicited mouse peritoneal macrophages (ELISA); conditions: for Emax: 4 h, read-out: Efficacy (magnitude) of response versus diprovocim-1 (100%), mouse macrophages; for EC50: read-out: EC50 (nM) (mouse): EC50 TNF-α release from mouse macrophages
# Sequence of TLR1/TLR2 (Mus musculus, UniProt Q9EPQ1+Q9QUN7) (Q9EPQ1 26-795): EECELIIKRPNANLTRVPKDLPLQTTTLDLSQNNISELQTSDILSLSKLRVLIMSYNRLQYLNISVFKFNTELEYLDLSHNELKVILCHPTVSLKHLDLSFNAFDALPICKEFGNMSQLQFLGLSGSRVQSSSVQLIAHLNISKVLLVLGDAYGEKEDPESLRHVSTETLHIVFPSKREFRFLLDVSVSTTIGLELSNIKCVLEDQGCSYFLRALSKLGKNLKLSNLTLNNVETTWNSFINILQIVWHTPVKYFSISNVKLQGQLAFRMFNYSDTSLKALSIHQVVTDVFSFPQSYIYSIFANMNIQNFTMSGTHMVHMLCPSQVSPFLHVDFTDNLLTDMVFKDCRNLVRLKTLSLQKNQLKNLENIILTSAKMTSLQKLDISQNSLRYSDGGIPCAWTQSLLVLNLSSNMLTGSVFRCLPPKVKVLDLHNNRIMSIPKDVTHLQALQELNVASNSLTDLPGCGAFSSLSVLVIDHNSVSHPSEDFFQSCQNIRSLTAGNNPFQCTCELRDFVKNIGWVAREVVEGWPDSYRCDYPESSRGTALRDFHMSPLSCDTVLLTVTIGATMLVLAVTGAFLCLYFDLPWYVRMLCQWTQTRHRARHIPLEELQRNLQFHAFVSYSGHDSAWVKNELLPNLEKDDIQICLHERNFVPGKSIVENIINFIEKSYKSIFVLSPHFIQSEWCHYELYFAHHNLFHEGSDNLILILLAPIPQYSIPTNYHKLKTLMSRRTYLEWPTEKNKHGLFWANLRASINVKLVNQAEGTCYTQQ
# Sequence of TLR1/TLR2 (Mus musculus, UniProt Q9EPQ1+Q9QUN7) (Q9QUN7 25-784): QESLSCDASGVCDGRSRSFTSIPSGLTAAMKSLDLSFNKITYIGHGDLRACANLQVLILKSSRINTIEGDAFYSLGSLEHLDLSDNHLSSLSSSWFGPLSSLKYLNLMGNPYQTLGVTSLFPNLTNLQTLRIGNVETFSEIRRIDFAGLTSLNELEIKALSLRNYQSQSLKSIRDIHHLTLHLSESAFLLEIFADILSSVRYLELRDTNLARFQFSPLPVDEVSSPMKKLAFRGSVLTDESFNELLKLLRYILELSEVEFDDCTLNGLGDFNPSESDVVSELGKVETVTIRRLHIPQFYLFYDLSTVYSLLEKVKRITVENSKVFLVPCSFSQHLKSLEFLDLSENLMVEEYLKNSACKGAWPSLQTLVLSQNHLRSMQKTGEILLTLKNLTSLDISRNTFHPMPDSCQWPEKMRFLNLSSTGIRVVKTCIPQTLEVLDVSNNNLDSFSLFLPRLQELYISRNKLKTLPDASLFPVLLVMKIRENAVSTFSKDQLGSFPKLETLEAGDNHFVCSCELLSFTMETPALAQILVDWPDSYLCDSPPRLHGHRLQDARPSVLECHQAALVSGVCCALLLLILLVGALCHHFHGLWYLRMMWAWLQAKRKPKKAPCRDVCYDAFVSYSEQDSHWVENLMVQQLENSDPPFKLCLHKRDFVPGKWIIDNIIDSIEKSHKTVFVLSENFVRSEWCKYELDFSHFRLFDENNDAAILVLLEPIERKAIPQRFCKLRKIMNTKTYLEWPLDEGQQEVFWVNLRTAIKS
# [2] = biological target: TLR1/TLR2 (Homo sapiens, UniProt O60603+Q15399); assay: TNF-α release from PMA-differentiated human THP-1 cells (ELISA); conditions: for Emax: THP-1, 4 h, read-out: Efficacy (magnitude) of response versus diprovocim-1 (100%), THP-1; for EC50: read-out: EC50 (nM) (THP-1): EC50 TNF-α release from human THP-1 cells;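 on all read-outs here: cells exposed to graded compound concentrations for 4 h, TNF-α quantified in supernatant, LPS as positive and DMSO as negative control, values are duplicate means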
# Sequence of TLR1/TLR2 (Homo sapiens, UniProt O60603+Q15399) (Q15399 25-786): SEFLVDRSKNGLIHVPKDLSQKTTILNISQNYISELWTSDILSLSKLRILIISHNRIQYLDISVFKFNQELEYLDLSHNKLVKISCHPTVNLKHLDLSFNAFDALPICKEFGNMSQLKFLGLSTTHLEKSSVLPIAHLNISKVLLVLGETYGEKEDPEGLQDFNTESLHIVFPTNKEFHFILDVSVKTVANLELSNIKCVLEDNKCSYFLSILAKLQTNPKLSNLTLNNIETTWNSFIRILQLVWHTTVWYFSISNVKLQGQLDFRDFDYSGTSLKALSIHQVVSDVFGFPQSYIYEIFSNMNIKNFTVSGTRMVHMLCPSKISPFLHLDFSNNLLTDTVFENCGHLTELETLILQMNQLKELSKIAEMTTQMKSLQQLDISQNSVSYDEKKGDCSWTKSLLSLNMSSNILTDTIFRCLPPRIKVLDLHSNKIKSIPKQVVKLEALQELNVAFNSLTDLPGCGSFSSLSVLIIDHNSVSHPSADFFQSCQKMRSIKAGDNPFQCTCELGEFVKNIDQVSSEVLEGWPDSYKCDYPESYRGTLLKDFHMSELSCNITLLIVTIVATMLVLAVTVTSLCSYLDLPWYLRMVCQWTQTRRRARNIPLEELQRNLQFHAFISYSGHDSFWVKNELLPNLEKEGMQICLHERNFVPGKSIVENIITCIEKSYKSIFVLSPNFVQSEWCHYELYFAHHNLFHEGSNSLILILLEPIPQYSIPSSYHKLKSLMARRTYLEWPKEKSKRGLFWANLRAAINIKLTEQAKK
# Sequence of TLR1/TLR2 (Homo sapiens, UniProt O60603+Q15399) (O60603 21-784): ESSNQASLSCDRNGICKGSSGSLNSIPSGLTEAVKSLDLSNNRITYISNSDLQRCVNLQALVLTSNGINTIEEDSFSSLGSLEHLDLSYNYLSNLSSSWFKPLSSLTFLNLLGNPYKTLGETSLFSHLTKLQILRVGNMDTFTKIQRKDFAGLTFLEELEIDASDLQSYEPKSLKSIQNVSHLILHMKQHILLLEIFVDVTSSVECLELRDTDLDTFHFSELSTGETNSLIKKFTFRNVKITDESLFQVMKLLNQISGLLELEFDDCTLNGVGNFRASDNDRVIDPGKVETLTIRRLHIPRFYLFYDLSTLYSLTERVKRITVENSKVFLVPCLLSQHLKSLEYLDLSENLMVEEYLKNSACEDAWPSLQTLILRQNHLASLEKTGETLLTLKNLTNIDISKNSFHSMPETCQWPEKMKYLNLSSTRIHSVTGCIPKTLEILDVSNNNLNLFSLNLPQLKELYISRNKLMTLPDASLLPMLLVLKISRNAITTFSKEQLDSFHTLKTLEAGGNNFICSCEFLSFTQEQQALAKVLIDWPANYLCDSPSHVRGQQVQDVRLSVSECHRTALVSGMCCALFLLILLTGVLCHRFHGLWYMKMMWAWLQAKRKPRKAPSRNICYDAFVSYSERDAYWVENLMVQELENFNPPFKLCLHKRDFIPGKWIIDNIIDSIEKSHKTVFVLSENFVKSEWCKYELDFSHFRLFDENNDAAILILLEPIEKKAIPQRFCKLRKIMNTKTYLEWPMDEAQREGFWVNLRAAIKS
Compound,pEC50 [1],Emax [1] [%],EC50 ([1]; Table 3) [nM],pEC50 [2],Emax [2] [%],EC50 ([2]; Table 3) [nM],EC50 ([1]; Table 4) [nM],reduction in activity relative to diprovocim-1 [2],EC50 ([2]; Table 4) [nM]
"CN(C)CC(=O)OCCCCCCCCCCCCNC(=O)[C@@H]1CN(C(=O)c2ccc(C(=O)N3C[C@@H](C(=O)N[C@H]4C[C@@H]4c4ccccc4)[C@H](C(=O)N[C@H]4C[C@@H]4c4ccccc4)C3)cc2)C[C@H]1C(=O)N[C@H]1C[C@@H]1c1ccccc1 [Compound 44, 12-((3S,4S)-1-(4-((3S,4S)-3,4-Bis(((1S,2R)-2-phenylcyclopropyl)carbamoyl)pyrrolidine-1-carbonyl)benzoyl)-4-(((1S,2R)-2-phenylcyclo-propyl)carbamoyl)pyrrolidine-3-carboxamido)-dodecyl 2-(dimethylamino)acetate]",8.30 to 9.15,140,4.7,9.70 to 10.30,100,0.05,,,
"O=C(CO)OCCCCCCCCCCCCNC(=O)[C@@H]1CN(C(=O)c2ccc(C(=O)N3C[C@@H](C(=O)N[C@H]4C[C@@H]4c4ccccc4)[C@H](C(=O)N[C@H]4C[C@@H]4c4ccccc4)C3)cc2)C[C@H]1C(=O)N[C@H]1C[C@@H]1c1ccccc1 [Compound 45, 12-((3S,4S)-1-(4-((3S,4S)-3,4-Bis(((1S,2R)-2-phenylcyclopropyl)carbamoyl)pyrrolidine-1-carbonyl)benzoyl)-4-(((1S,2R)-2-phenylcyclo-propyl)carbamoyl)pyrrolidine-3-carboxamido)dodecyl 2-hydroxyacetate]",8.30 to 9.15,140,0.7,9.70 to 10.30,100,0.2,,,
"O=C(COCc1ccccc1)OCCCCCCCCCCCCNC(=O)[C@@H]1CN(C(=O)c2ccc(C(=O)N3C[C@@H](C(=O)N[C@H]4C[C@@H]4c4ccccc4)[C@H](C(=O)N[C@H]4C[C@@H]4c4ccccc4)C3)cc2)C[C@H]1C(=O)N[C@H]1C[C@@H]1c1ccccc1 [Compound 46, 12-((3S,4S)-1-(4-((3S,4S)-3,4-Bis(((1S,2R)-2-phenylcyclopropyl)carbamoyl)pyrrolidine-1-carbonyl)benzoyl)-4-(((1S,2R)-2-phenylcyclopropyl)-carbamoyl)pyrrolidine-3-carboxamido)-dodecyl 2-(benzyloxy)acetate]",8.30 to 9.15,220,5.3,9.70 to 10.30,130,0.06,,,
"CC(C)(C)OCC(=O)OCCCCCCCCCCCCNC(=O)[C@@H]1CN(C(=O)c2ccc(C(=O)N3C[C@@H](C(=O)N[C@H]4C[C@@H]4c4ccccc4)[C@H](C(=O)N[C@H]4C[C@@H]4c4ccccc4)C3)cc2)C[C@H]1C(=O)N[C@H]1C[C@@H]1c1ccccc1 [Compound 47, 12-((3S,4S)-1-(4-((3S,4S)-3,4-Bis(((1S,2R)-2-phenylcyclopropyl)carbamoyl)pyrrolidine-1-carbonyl)benzoyl)-4-(((1S,2R)-2-phenylcyclopropyl)-carbamoyl)pyrrolidine-3-carboxamido)dodecyl 2-(tert-butoxy)acetate]",,230,5,,100,0.65,,,
"CC(C)(C)OC(=O)NCCOCCCCCCCCCCCCNC(=O)[C@@H]1CN(C(=O)c2ccc(C(=O)N3C[C@@H](C(=O)N[C@H]4C[C@@H]4c4ccccc4)[C@H](C(=O)N[C@H]4C[C@@H]4c4ccccc4)C3)cc2)C[C@H]1C(=O)N[C@H]1C[C@@H]1c1ccccc1 [Compound 48, tert-Butyl (2-((12-((3S,4S)-1-(4-((3S,4S)-3,4-bis(((1S,2R)-2-phenylcyclopropyl)carbamoyl)-pyrrolidine-1-carbonyl)-benzoyl)-4-(((1S,2R)-2-phenylcyclopropyl)carbamoyl)pyrrolidine-3-carbox-amido)dodecyl)oxy)ethyl)carbamate]",,220,6.3,,100,3,,,
"CC(C)(C)OC(=O)COCCCCCCCCCCCCNC(=O)[C@@H]1CN(C(=O)c2ccc(C(=O)N3C[C@@H](C(=O)N[C@H]4C[C@@H]4c4ccccc4)[C@H](C(=O)N[C@H]4C[C@@H]4c4ccccc4)C3)cc2)C[C@H]1C(=O)N[C@H]1C[C@@H]1c1ccccc1 [Compound 49, tert-Butyl 2-((12-((3S,4S)-1-(4-((3S,4S)-3,4-bis(((1S,2R)-2-phenylcyclopropyl)carbamoyl)-pyrrolidine-1-carbonyl)benzoyl)-4-(((1S,2R)-2-phenylcyclopropyl)carbamoyl)pyrrolidine-3-carboxamido)dodecyl)oxy)acetate]",,270,1.8,,100,15,,,
"COC(=O)CNC(=O)OCCCCCCCCCCCCNC(=O)[C@@H]1CN(C(=O)c2ccc(C(=O)N3C[C@@H](C(=O)N[C@H]4C[C@@H]4c4ccccc4)[C@H](C(=O)N[C@H]4C[C@@H]4c4ccccc4)C3)cc2)C[C@H]1C(=O)N[C@H]1C[C@@H]1c1ccccc1 [Compound 50, Methyl 2-((((12-((3S,4S)-1-(4-((3S,4S)-3,4-bis-(((1S,2R)-2-phenylcyclopropyl)carbamoyl)pyrrolidine-1-carbonyl)benzoyl)-4-(((1S,2R)-2-phenylcyclopropyl)-carbamoyl)pyrrolidine-3-carboxamido)dodecyl)oxy)-carbonyl)amino)acetate]",,90,6,,90,0.2,,,
"O=C(NCCCCCCCCCCCCOCc1ccc([N+](=O)[O-])cc1)[C@@H]1CN(C(=O)c2ccc(C(=O)N3C[C@@H](C(=O)N[C@H]4C[C@@H]4c4ccccc4)[C@H](C(=O)N[C@H]4C[C@@H]4c4ccccc4)C3)cc2)C[C@H]1C(=O)N[C@H]1C[C@@H]1c1ccccc1 [Compound 51, (3S,4S)-1-(4-((3S,4S)-3,4-Bis(((1S,2R)-2-phenylcyclo-propyl)carbamoyl)pyrrolidine-1-carbonyl)-benzoyl)-N^3-(12-((4-nitrobenzyl)oxy)dodecyl)-N^4-((1S,2R)-2-phenyl-cyclopropyl)pyrrolidine-3,4-dicarboxamide]",,230,0.85,,110,0.25,,,
"Nc1ccc(COCCCCCCCCCCCCNC(=O)[C@@H]2CN(C(=O)c3ccc(C(=O)N4C[C@@H](C(=O)N[C@H]5C[C@@H]5c5ccccc5)[C@H](C(=O)N[C@H]5C[C@@H]5c5ccccc5)C4)cc3)C[C@H]2C(=O)N[C@H]2C[C@@H]2c2ccccc2)cc1 [Compound 52, (3S,4S)—N^3-(12-((4-Aminobenzyl)oxy)dodecyl)-1-(4-((3S,4S)-3,4-bis(((1S,2R)-2-phenyl-cyclopropyl)carbamoyl)pyrrolidine-1-carbonyl)-benzoyl)-N^4-((1S,2R)-2-phenylcyclopropyl)pyrrolidine-3,4-dicarboxamide]",,130,2,,90,0.26,,,
"C#CCN(C)CC(=O)OCCCCCCCCCCCCNC(=O)[C@@H]1CN(C(=O)c2ccc(C(=O)N3C[C@@H](C(=O)N[C@H]4C[C@@H]4c4ccccc4)[C@H](C(=O)N[C@H]4C[C@@H]4c4ccccc4)C3)cc2)C[C@H]1C(=O)N[C@H]1C[C@@H]1c1ccccc1 [Compound 53, 12-((3S,4S)-1-(4-((3S,4S)-3,4-Bis(((1S,2R)-2-phenylcyclopropyl)carbamoyl)pyrrolidine-1-carbonyl)-benzoyl)-4-(((1S,2R)-2-phenylcyclopropyl)carbamoyl)-pyrrolidine-3-carboxamido)dodecyl 2-(methyl(prop-2-yn-1-yl)amino)acetate]",,100,5.3,,40,0.59,,,
"C#CCOCC(=O)OCCCCCCCCCCCCNC(=O)[C@@H]1CN(C(=O)c2ccc(C(=O)N3C[C@@H](C(=O)N[C@H]4C[C@@H]4c4ccccc4)[C@H](C(=O)N[C@H]4C[C@@H]4c4ccccc4)C3)cc2)C[C@H]1C(=O)N[C@H]1C[C@@H]1c1ccccc1 [Compound 54, 12-((3S,4S)-1-(4-((3S,4S)-3,4-Bis(((1S,2R)-2-phenylcyclopropyl)carbamoyl)pyrrolidine-1-carbonyl)benzoyl)-4-(((1S,2R)-2-phenylcyclopropyl)-carbamoyl)pyrrolidine-3-carboxamido)dodecyl 2-(prop-2-yn-1-yloxy)acetate]",,110,4.9,,30,0.29,,,
"CC(C)(C)OC(=O)NCCOCCOCCOCCOCCC(=O)OCCCCCCCCCCCCNC(=O)[C@@H]1CN(C(=O)c2ccc(C(=O)N3C[C@@H](C(=O)N[C@H]4C[C@@H]4c4ccccc4)[C@H](C(=O)N[C@H]4C[C@@H]4c4ccccc4)C3)cc2)C[C@H]1C(=O)N[C@H]1C[C@@H]1c1ccccc1 [Compound 55, 12-((3S,4S)-1-(4-((3S,4S)-3,4-Bis(((1S,2R)-2-phenyl-cyclopropyl)carbamoyl)pyrrolidine-1-carbonyl)-benzoyl)-4-(((1S,2R)-2-phenylcyclopropyl)carbamoyl)-pyrrolidine-3-carboxamido)-dodecyl 2,2-dimethyl-4-oxo-3,8,11,14,17-pentaoxa-5-azaicosan-20-oate]",,150,,,90,,3.4,two-fold reduction in activity,0.26
"CC(C)(C)OC(=O)CCOCCOCCOCCNC(=O)CCCCCCCCCCCNC(=O)[C@@H]1CN(C(=O)c2ccc(C(=O)N3C[C@@H](C(=O)N[C@H]4C[C@@H]4c4ccccc4)[C@H](C(=O)N[C@H]4C[C@@H]4c4ccccc4)C3)cc2)C[C@H]1C(=O)N[C@H]1C[C@@H]1c1ccccc1 [Compound 56, tert-Butyl 1-((3S,4S)-1-(4-((3S,4S)-3,4-bis(((1S,2R)-2-phenylcyclopropyl)carbamoyl)pyrrolidine-1carbonyl)benzoyl)-4-(((1S,2R)-2-phenylcyclopropyl)-carbamoyl)pyrrolidin-3-yl)-1,14-dioxo-18,21,24-trioxa-2,15-diazaheptacosan-27-oate]",,140,,,100,,21,,2.8
